Experimental findings from patent US9371365B2, “Modified compstatin with peptide backbone and C-terminal modifications” (The Trustees of the University of Pennsylvania, priority 2009, dated 2016) are described below.

The structures appear in SMILES notation.

This test deals with T1, C3b (Homo sapiens, UniProt P01024).
T1 construct: biotin (chemical biotinylation of C3b)
Nature of the test: SPR analysis of binding kinetics to immobilized C3b. The method, then:
(§1) The kinetics of the interaction between C3b and each compstatin analog was analyzed by SPR on a Biacore 3000 instrument (GE Healthcare Corp., Piscataway, N.J.) at 25° C. using PBS-T (10 mM sodium phosphate, 150 mM NaCl, 0.005% Tween-20, pH 7.4) as the running buffer, as described above. In brief, biotinylated C3b (30 μg/mL) was immobilized on a streptavidin-coated sensor chip, and a two-fold serial dilution series (1 μM-500 pM) of each analog was injected for 2 min at 30 μl/min, with a dissociation phase of 5-10 min. Peptide [Trp(Me)^4]-Ac-compstatin was included in each experimental series as an internal control and reference. Data analysis was performed using Scrubber (BioLogic Software, Campbell, Australia). The signals from an untreated flow cell and an ensemble of buffer blank injections were subtracted to correct for buffer effects and injection artifacts. Processed biosensor data were globally fitted to a 1:1 Langmuir binding model, and the equilibrium dissociation constant (KD) was calculated from the equation KD=kd/ka. Peptide solutions were injected in duplicate in every experiment, and each screening assay was performed at least twice.
as §1, with “in Example 1.” for “above.”, “μg/ml)” for “μg/mL)”, “Peptide [Trp(Me)^4]-Ac-compstatin was included in each experimental series as an internal control and reference.” left out
On the technique in general: SPR reads the build-up and loss of mass on a sensor chip optically.

T1 sequence (P01024 23-667 limits assumed): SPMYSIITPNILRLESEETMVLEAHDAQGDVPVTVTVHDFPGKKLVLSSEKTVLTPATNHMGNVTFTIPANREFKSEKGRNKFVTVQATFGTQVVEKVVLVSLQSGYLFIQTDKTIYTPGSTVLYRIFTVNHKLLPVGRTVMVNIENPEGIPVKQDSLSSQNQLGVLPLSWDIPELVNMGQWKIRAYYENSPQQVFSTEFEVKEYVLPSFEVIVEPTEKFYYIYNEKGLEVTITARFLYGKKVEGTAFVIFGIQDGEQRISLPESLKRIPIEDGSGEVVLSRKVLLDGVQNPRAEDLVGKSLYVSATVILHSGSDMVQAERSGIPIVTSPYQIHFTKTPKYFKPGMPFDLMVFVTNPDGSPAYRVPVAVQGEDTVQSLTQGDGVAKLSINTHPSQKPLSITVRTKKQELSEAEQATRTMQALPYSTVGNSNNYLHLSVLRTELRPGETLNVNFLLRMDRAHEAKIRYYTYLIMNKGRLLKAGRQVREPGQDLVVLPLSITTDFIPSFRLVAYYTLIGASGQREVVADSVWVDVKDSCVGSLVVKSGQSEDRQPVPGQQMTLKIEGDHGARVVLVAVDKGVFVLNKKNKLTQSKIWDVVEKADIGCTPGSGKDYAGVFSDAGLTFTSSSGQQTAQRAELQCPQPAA
T1 sequence (P01024 749-1663 limits assumed): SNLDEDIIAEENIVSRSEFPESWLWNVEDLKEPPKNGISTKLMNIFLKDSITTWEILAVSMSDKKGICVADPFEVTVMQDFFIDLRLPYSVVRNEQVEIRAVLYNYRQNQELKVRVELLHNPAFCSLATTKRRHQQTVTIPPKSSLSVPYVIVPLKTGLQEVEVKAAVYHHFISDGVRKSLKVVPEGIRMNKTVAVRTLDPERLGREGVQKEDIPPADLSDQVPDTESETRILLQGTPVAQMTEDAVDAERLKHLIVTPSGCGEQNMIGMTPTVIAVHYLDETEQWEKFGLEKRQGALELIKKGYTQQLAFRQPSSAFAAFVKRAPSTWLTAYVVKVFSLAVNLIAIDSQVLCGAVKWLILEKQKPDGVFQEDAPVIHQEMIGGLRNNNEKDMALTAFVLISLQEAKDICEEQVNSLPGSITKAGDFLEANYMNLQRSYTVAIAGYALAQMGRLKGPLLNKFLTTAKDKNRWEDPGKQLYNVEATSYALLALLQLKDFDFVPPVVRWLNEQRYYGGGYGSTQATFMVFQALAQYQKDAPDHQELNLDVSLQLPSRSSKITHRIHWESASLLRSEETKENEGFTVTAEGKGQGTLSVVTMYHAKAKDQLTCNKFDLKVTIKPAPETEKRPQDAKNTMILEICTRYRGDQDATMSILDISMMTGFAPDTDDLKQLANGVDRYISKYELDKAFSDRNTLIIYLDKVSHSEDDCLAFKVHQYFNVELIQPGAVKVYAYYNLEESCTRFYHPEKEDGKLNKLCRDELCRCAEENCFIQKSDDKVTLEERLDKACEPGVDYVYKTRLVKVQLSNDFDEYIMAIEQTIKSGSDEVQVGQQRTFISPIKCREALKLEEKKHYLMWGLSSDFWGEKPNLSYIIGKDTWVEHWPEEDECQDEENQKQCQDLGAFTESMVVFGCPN

As for `CC[C@H](C)[C@H](NC(=O)[C@@H]1CSSC[C@H](NC(=O)[C@@H](NC(C)=O)[C@@H](C)CC)C(=O)N[C@@H](C(C)C)C(=O)N[C@@H](Cc2cn(C)c3ccccc23)C(=O)N[C@@H](CCC(N)=O)C(=O)N[C@@H](CC(=O)O)C(=O)N[C@@H](Cc2c[nH]c3ccccc23)C(=O)N(C)CC(=O)N[C@@H](C)C(=O)N[C@@H](Cc2c[nH]cn2)C(=O)N[C@@H](CCCNC(=N)N)C(=O)N1)C(N)=O` [Peptide 17, Ac−Ic[CV(^1−MeW)QDW(^N−MeG)AHRC]I-NH2], the “fold stronger affinity than peptide 14” value (SPR) was 2.7 fold. Where the note is “SPR, 25° C., PBS-T”, the kd is 6.6 10^−3/s. Where the note is “SPR, Table 2-1”, the Koff is listed as 6.6 10^−3, s^−1 and the Kon is 1.0 10^6, M^−1 · s^−1. Besides, the kon (pH 7.4, read-out: ka) was found to be 1.5e+06 M⁻¹ s⁻¹. Besides, under “relative to peptide 14”, the “rKD SPR” value is 2.7, the rka was 1.5 and the rkd was determined as 1.7.
